From the supplement of paper PMC10307832

Assays:
Assay in all cases: relative viability (nuclei count vs DMSO), 5 days (fraction); higher = more cells survive
XMD14-99 = compound: CN1CCN(CC1)C2=CC(=C(C=C2)NC3=NC(=C(S3)C(=O)C4=C(C=CC=C4Cl)Cl)N)OC [XMD14-99]
In short: (§1)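 Viability was read as treated-well nuclei divided by vehicle-well nuclei, using the median across plates. Lung cancer cell lines in 1536-well plates were kept overnight at 37 °C, pinned with five √10-spaced library-drug doses, and after 5 days were Hoechst-stained, imaged at 4× and counted in MetaXpress. Plates passed only with control CV below 25% and at least one doubling.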

AZD1208 = compound: N[C@@H]1CCCN(c2c(/C=C3\SC(=O)NC3=O)cccc2-c2ccccc2)C1 [AZD1208]
In short: as §1

XMD14-99 + Navitoclax = compound: CN1CCN(CC1)C2=CC(=C(C=C2)NC3=NC(=C(S3)C(=O)C4=C(C=CC=C4Cl)Cl)N)OC [XMD14-99] + CC1(C)CCC(c2ccc(Cl)cc2)=C(CN2CCN(c3ccc(C(=O)NS(=O)(=O)c4ccc(N[C@H](CCN5CCOCC5)CSc5ccccc5)c(S(=O)(=O)C(F)(F)F)c4)cc3)CC2)C1 [Navitoclax] (partner 0.5 µM)
In short: (§2)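 Relative viability equals treated-well nuclei counts divided by vehicle-well nuclei counts. Counts came from 4× images of lung cancer cell lines grown in 1536-well plates for 5 days after pin-tool dosing on the day after seeding. Dosing used one drug alone or a fixed anchor-drug dose plus five library-drug doses (not always all listed) in √10 steps, and values are medians of duplicate plates.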

AZD1208 + Phenformin = compound: N[C@@H]1CCCN(c2c(/C=C3\SC(=O)NC3=O)cccc2-c2ccccc2)C1 [AZD1208] + N=C(N)NC(=N)NCCc1ccccc1 [Phenformin] (partner 250 µM)
In short: as §2

Cell Line | relative viability (XMD14-99; 0.08 µM) | relative viability (XMD14-99; 0.8 µM) | relative viability (XMD14-99; 2.53 µM) | relative viability (XMD14-99; 8 µM) | relative viability (AZD1208; 0.08 µM) | relative viability (AZD1208; 0.253 µM) | relative viability (AZD1208; 0.8 µM) | relative viability (AZD1208; 2.53 µM) | relative viability (AZD1208; 8 µM) | relative viability (XMD14-99 + Navitoclax; first compound 0.08 µM) | relative viability (XMD14-99 + Navitoclax; first compound 0.8 µM) | relative viability (XMD14-99 + Navitoclax; first compound 2.53 µM) | relative viability (XMD14-99 + Navitoclax; first compound 8 µM) | relative viability (AZD1208 + Phenformin; first compound 0.08 µM) | relative viability (AZD1208 + Phenformin; first compound 0.253 µM) | relative viability (AZD1208 + Phenformin; first compound 0.8 µM) | relative viability (AZD1208 + Phenformin; first compound 2.53 µM) | relative viability (AZD1208 + Phenformin; first compound 8 µM)
EMC-BAC-2 | 1.01 | 1.03 | 0.889 | 0.645 | 1.23 | 0.95 | 0.917 | 0.949 | 0.754 | 1.08 | 1.14 | 1.06 | 0.901 | 0.535 | 0.63 | 0.497 | 0.509 | 0.428
LU99A | 0.982 | 1.03 | 0.896 | 0.8 | 0.974 | 0.963 | 0.921 | 0.878 | 0.807 | 0.766 | 0.776 | 0.786 | 0.725 | 0.871 | 0.921 | 0.965 | 0.764 | 0.638
NCI-H2170 | 0.97 | 1.01 | 0.995 | 0.925 | 0.99 | 0.994 | 0.945 | 0.964 | 0.64 | 0.574 | 0.594 | 0.644 | 0.603 | 0.458 | 0.385 | 0.444 | 0.438 | 0.447
NCI-H2405 | 0.962 | 1.02 | 0.964 | 0.726 | 1.01 | 0.938 | 0.942 | 0.964 | 0.947 | 0.825 | 1.05 | 0.877 | 0.436 | 0.385 | 0.384 | 0.35 | 0.362 | 0.35
NCI-H2009 | 0.987 | 1.03 | 0.887 | 0.804 | 1.03 | 1.07 | 1.01 | 0.975 | 1 | 1.15 | 1.1 | 1.03 | 0.999 | 0.481 | 0.489 | 0.491 | 0.489 | 0.441
NCI-H441 | 0.912 | 0.968 | 0.847 | 0.645 | 0.937 | 1.14 | 0.896 | 0.989 | 0.736 | 0.575 | 0.556 | 0.724 | 0.569 | 0.782 | 0.66 | 0.609 | 0.641 | 0.556
PC-14 | 1.02 | 1.01 | 0.907 | 0.646 | 1.07 | 1.11 | 0.923 | 0.996 | 0.953 | 0.983 | 0.902 | 0.943 | 0.726 | 0.778 | 0.616 | 0.525 | 0.544 | 0.565
HARA | 0.894 | 0.947 | 0.701 | 0.692 | 0.935 | 1.17 | 0.974 | 0.931 | 0.997 | 1.15 | 1.18 | 1.17 | 1.02 | 0.454 | 0.498 | 0.377 | 0.474 | 0.468
NCI-H2126 | 0.993 | 0.991 | 0.977 | 0.897 | 0.998 | 0.965 | 0.942 | 0.866 | 0.79 | 0.844 | 0.797 | 0.879 | 0.793 | 0.506 | 0.507 | 0.493 | 0.545 | 0.466
NCI-H1437 | 0.968 | 0.903 | 0.814 | 0.682 | 1.06 | 1.13 | 1.05 | 1.03 | 0.939 | 1.06 | 1 | 0.913 | 0.629 | 0.324 | 0.258 | 0.267 | 0.277 | 0.314
NCI-H1792 | 1.02 | 0.879 | 0.818 | 0.471 | 1.08 | 1.05 | 0.646 | 0.954 | 0.664 | 0.747 | 0.638 | 0.561 | 0.41 | 0.371 | 0.233 | 0.179 | 0.258 | 0.138
ChaGo-K-1 | 0.97 | 1.03 | 0.961 | 0.939 | 1.13 | 1.03 | 0.924 | 1.04 | 0.893 | 1.05 | 1.06 | 0.908 | 0.745 | 0.54 | 0.569 | 0.524 | 0.475 | 0.373
COR-L23 | 1.04 | 0.891 | 0.946 | 0.693 | 0.969 | 1.12 | 0.965 | 0.99 | 1 | 0.951 | 0.894 | 0.746 | 0.538 | 0.491 | 0.469 | 0.417 | 0.419 | 0.408
COR-L 105 | 0.852 | 1.14 | 0.706 | 0.718 | 0.837 | 0.909 | 0.929 | 0.712 | 0.821 | 0.776 | 0.724 | 0.842 | 0.767 | 0.476 | 0.567 | 0.478 |  | 0.477
LK-2 | 0.914 | 1.04 | 1.09 | 0.913 | 0.882 | 0.718 | 0.63 | 0.493 | 0.42 | 0.767 | 0.883 | 1.02 | 0.91 | 0.402 | 0.218 | 0.179 | 0.188 | 0.135
201T | 0.993 | 0.986 | 0.99 | 0.804 | 1.05 | 0.99 | 0.952 | 0.933 | 0.939 | 1.18 | 1.17 | 1.11 | 1.15 | 0.434 | 0.444 | 0.429 | 0.427 | 0.351
HCC-44 | 1.04 | 0.969 | 1.02 | 0.948 | 1.11 | 0.933 | 1.01 | 1.09 | 1.05 | 1.07 | 0.888 | 0.935 | 0.9 | 0.219 | 0.202 | 0.172 | 0.147 | 0.176
NCI-H647 | 0.981 | 0.99 | 0.92 | 0.819 | 1.02 | 1.04 | 0.891 | 0.892 | 0.788 | 1.08 | 1.19 | 1.16 | 0.974 | 0.459 | 0.837 | 0.344 | 0.344 | 0.352
